Assay results reported in patent US20130072495A1, “FUSED BICYCLIC KINASE INHIBITORS” (OSI Pharmaceuticals, LLC, priority 2010, published 2013).

Columns and labels:
[1] = biological target: T1, MET (Homo sapiens, UniProt P08581); experiment: MET cell mechanistic assay (MKN45), phosphorylated MET levels; type: cell-based; settings: MKN45 cell line, four hours incubation, at least duplicate experiments, read-out: MET mech IC50
T1 construct: endogenous in cells; host or cells: MKN45
Method: The cellular activity of the compounds of the present invention against MET may be determined by the following procedure. MKN45 cells were plated in Falcon 3072 96-well plates in growth media (RPMI, 10% FBS, 1% L-glutamine) at a density of 5000 cells/well and incubated at 37° C., 5% CO2 overnight. The following day, one-tenth volume of a 10× concentration of compounds was added to the wells in a 6-point dilution series. The dilutions series was composed of an initial […] in DMSO, followed by a […] in growth media, for a final DMSO concentration on cells of 0.5%. Control wells were treated with 0.5% DMSO. The typical range of dilution was 10 μM to 3 nM. Once compound was added to the cells, plates were incubated for four hours at 37° C., 5% CO2. Plates were then washed in PBS, and lysed in triton-based lysis buffer. Lysates were transferred to a precoated capture plate made by Biosource (Cat # KHO0281). The phosphorylated MET levels were measured by incubating with a rabbit polyclonal antibody against phosphorylated MET ([pYpYpY1230/1234/1235]) followed by an anti-rabbit antibody conjugated to HRP. Signal was measured on a Wallac Victor plate reader at 450 nm. The DMSO signal of the control wells was defined as 100% and the percent of inhibition of phosphorylated MET was expressed as percent of control. IC50 values were determined from the percent of control data using a standard four-parameter model.
(§1) The IC50 values of exemplary compounds of the present invention determined in a MET cell mechanistic assay using the MKN45 cell line according to the procedures described herein in at least duplicate experiments are abbreviated as follows and are shown in Table 2: A, IC50≦0.1 μM; B, 0.1 μM<IC50≦0.5 μM; C, 0.5 μM<IC50≦2 μM; D, IC50>2 μM; ND, not determined. The Example # of Table 2 corresponds to the compound example number as illustrated in the Experimental section above.

[2] = tested on: MKN45 cells; experiment: MKN45 cell proliferation assay (CellTiter-Glo); type: cell-based; settings: Homo sapiens, MKN-45, 72 h; MKN45 cell line, 3 days incubation, at least duplicate experiments; read-out: Prolif. IC50
Method: The effect of inhibitors on the proliferation of MKN45 cells was determined using the following protocol. MKN45 cells were plated in Corning 3917 96-well white tissue culture treated plates in growth medium (RPMI, 10% FCS) at a density of 5000 cells/well in a total volume of 135 μL and incubated at 37° C., 5% CO2, 95% humidity overnight. The following day, one-tenth volume of a 10× concentration of compounds was added to the wells in an 8-point dilution series. The dilution series was composed of an initial 1:5 dilution of a 10 mM stock of compound in DMSO, followed by serial 1:4 dilutions in DMSO, then a 1:20 dilution in growth medium prior to the 1:10 dilution into the cell plate. Final DMSO concentration on the cells was 0.1%, there were control wells treated with both 0.1% DMSO and no DMSO. The typical dilution range is 10 μM to 0.6 nM. Once the compound was added to the cells, plates were incubated for 3 days at 37° C., 5% CO2 at 95% humidity. On the third day, after allowing all cells and reagents to come to room temperature, 25 μL of CellTiter-Glo reagent (Promega # G7573) was added to the wells. Plates were shaken on a platform for 10 minutes prior to reading luminescence for 0.1 seconds. The signal of the control wells was taken as 100% growth and growth inhibition was expressed as percent of control. IC50 values were determined from the percent of control data using a standard four-parameter model.
as §1, with “a” for “a MET”, “cell proliferation” for “cell mechanistic”, “Table 1:” for “Table 2:”, “Table 1” for “Table 2”
Treatment of this cell line with a selective MET inhibitor led to induction of apoptosis and inhibition of proliferation, whereas non-MET-amplified cell lines were not affected. Smolen et al., Proc. Natl. Acad. Sci. USA, 103(7):2316-2321 (2006). This cell line is thus “driven” by MET, and antiproliferative effects correlate very well with the inhibition of MET phosphorylation so that the cell proliferation IC50 values can be used as surrogate for the MET cell mechanistic IC50 values. Under the assay conditions described herein, the IC50 values correlate nearly 1:1.

T1 sequence (P08581 25-1390): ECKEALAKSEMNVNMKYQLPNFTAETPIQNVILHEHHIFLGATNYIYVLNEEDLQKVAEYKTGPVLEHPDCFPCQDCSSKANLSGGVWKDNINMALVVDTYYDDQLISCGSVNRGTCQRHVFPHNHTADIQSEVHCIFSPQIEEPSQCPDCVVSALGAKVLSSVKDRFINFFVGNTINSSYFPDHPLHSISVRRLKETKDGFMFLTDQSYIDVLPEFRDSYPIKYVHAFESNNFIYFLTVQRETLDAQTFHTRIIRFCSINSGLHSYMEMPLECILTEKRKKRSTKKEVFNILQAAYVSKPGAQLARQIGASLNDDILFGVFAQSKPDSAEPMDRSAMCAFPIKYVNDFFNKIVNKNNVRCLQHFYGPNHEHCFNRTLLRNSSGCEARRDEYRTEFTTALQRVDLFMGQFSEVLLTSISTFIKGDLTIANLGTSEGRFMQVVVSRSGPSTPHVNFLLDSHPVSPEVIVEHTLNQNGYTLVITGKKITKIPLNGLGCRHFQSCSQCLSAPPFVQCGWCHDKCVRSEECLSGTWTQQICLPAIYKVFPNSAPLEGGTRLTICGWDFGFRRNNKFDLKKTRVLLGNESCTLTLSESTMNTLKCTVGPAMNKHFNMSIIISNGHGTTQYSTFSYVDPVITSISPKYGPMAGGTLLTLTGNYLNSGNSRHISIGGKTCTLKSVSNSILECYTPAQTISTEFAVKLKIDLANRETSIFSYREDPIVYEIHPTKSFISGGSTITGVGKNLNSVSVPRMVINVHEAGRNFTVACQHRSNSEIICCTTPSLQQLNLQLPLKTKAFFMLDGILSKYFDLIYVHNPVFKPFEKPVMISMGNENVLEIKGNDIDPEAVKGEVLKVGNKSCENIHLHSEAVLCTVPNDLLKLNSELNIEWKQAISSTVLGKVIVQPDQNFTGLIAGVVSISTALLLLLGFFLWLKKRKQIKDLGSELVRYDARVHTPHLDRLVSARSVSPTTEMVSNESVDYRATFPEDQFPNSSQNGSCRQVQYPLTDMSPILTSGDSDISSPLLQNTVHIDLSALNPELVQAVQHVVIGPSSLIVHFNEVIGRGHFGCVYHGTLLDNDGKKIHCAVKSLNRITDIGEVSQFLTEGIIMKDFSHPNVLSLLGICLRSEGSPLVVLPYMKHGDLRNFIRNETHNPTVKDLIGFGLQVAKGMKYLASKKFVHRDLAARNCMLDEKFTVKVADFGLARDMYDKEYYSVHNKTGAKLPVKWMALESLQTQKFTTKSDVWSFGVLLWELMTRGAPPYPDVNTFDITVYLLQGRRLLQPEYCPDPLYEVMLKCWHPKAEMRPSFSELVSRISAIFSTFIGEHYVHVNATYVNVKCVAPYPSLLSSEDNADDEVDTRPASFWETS

| IC50 [1] [nM] | IC50 [2] [nM] | SMILES |
| --- | --- | --- |
| 100 to 500 | 100 to 500 | CC(c1c(Cl)ccc(F)c1Cl)c1c[nH]c2ncc(-c3cnn(C4CCNCC4)c3)nc12 (stereo not drawn) [Example 2, 7-[1-(2,6-dichloro-3-fluorophenyl)ethyl]-2-(1-piperidin-4-yl-1H-pyrazol-4-yl)-5H-pyrrolo[2,3-b]pyrazine] |
| 100 to 500 | 500 to 2000 | CC(c1c(Cl)ccc(F)c1Cl)c1c[nH]c2ncc(-c3cnn(C4CCN(C=O)CC4)c3)nc12 (stereo not drawn) [Example 3, 4-(4-{7-[1-(2,6-dichloro-3-fluorophenyl)ethyl]-5H-pyrrolo[2,3-b]pyrazin-2-yl}-1H-pyrazol-1-yl)piperidine-1-carbaldehyde] |
| > 2000 | > 2000 | CC(c1c(Cl)ccc(F)c1Cl)c1c[nH]c2nnc(-c3cnn(C4CCNCC4)c3)cc12 (stereo not drawn) [Example 16, 5-[1-(2,6-Dichloro-3-fluorophenyl)ethyl]-3-[1-(piperidin-4-yl)-1H-pyrazol-4-yl]-7H-pyrrolo[2,3-c]pyridazine] |
